Results reported in publication PMC8533149 (Biomolecules, 2021).

Tested on: HIV-1 LTR-III G-quadruplex (FAM/TAMRA-labeled LTR-III)
Test: FRET melting assay, LTR-III G4
Assay type: binding
Conditions: Table S1 primary screening, ligand:ODN 50:1, singlicate
Experimental: To evaluate stabilizing properties of the ligands in a complex with oligodeoxyribonucleotides (ODNs) melting with fluorescence registration was used. ODN (0.5 μM) (Table 1), labeled with 6-carboxyfluorescein (FAM) and 6-carboxytetramethylrhodamine (TAMRA) at the 5′- and 3′-end, respectively, were folded in lithium cacodylate buffer (10 mM, pH 7.4) with 100 mM KCl by heating at 95 °C for 5 min and gradually cooling to r.t. GFP chromophore analogs (5 mM solution in DMSO) were diluted with the same buffer to the final concentration of 25 μM and mixed with an equal volume of 0.5 μM ODN solution resulting in a molar ratio of 50:1 (total volume was 50 μL). For the titration experiments molar ratios of 20:1 and 2:1 were used. Samples were analyzed using DTprime qPCR system (DNA-Technology LLC, Moscow, Russia). Fluorescence was registered by detection of FAM emission at 520 nm upon excitation at 495 nm in the temperature range of 30–95 °C with 1 °C/min gradient. Tm was determined using the instrument software and ΔTm was calculated relative to ODN Tm in a buffer solution containing 0.25% (v/v) DMSO. The primary and secondary screening were carried out in singlicate and triplicate, respectively.

CC(C)OC(=O)c1noc(=O)c(O)c1-c1ccc(N(C)C)cc1 [SA 305C]
LTR-III ΔTm: -0.6 °C

COc1cc(O)ccc1C=C1N=C(C=Cc2ccccn2)N(C)C1=O [M 2766]
LTR-III ΔTm: 1.1 °C

CC1=NC(=Cc2ccc(O)c([N+](=O)[O-])c2)C(=O)N1C [M 2482]
LTR-III ΔTm: -1.2 °C

CCNc1ccc2cc(Br)ccc2c1 [N 576.2]
LTR-III ΔTm: 0 °C

CN1C(=O)C(=Cc2ccc(O)cc2)N=C1C=Cc1c(F)c(F)c(O)c(F)c1F [N 893]
LTR-III ΔTm: -0.4 °C

COc1ccc(C=C2N=C(C=C(SC)c3ccccc3)N(C)C2=O)cc1 [SA 474.1]
LTR-III ΔTm: 0 °C

COc1ccc(C=C2N=C(C=C(O)c3ccc(Br)cc3)N(C)C2=O)cc1 [N 537]
LTR-III ΔTm: -0.3 °C

CN1C=NC(=Cc2ccc(O[Si](c3ccccc3)(c3ccccc3)C(C)(C)C)cc2)C1=O [N 624]
LTR-III ΔTm: -0.5 °C

CC1=NC(=Cc2cc(F)c(O)c(F)c2)C(=O)N1CCCC(=O)O [M 894]
LTR-III ΔTm: -0.3 °C

CC1=CC(C)(C)N(C)c2ccc(C=C3N=C(C)N(CCCCO)C3=O)cc21 [N 141]
LTR-III ΔTm: 0.2 °C

CC1=NC(=Cc2ccc(O)cc2O)C(=O)N1C [N 844.1]
LTR-III ΔTm: -0.1 °C

CC(C)C1=NC(=Cc2ccc(O)cc2)C(=O)N1C [GA 06]
LTR-III ΔTm: -0.7 °C

CC1=NC(=Cc2ccc[nH]2)C(=O)N1C [N 815]
LTR-III ΔTm: -0.1 °C

CCN(CC)c1ccc(C=C2NC(=S)NC2=O)cc1 [AL 172]
LTR-III ΔTm: -0.2 °C

CN(C)c1ccc(C=C2NC(=S)NC2=O)cc1 [AL 165]
LTR-III ΔTm: -0.2 °C

CCCCN(CCCC)c1ccc(C=C2N=C(C)N(C)C2=O)cc1 [SA 33]
LTR-III ΔTm: 0.2 °C

CCC1=NC(=Cc2ccc(N(CC)CC)cc2)C(=O)N1C [M 747]
LTR-III ΔTm: 0.6 °C

CCN(CC)c1ccc(/C=C2\N=C3C(=O)NCCN3C2=O)cc1 [JL 19]
LTR-III ΔTm: 0.1 °C

CN1C(=O)C(=Cc2ccc(O)c(O)c2)N=C1C=Cc1ccccc1 [M 2499b]
LTR-III ΔTm: 0.3 °C

CC1=NC(=Cc2ccc(O)cc2)C(=O)N1C [GA 03]
LTR-III ΔTm: 0.5 °C

CC1=NC(=C(N)c2ccccc2)C(=O)N1C [ZS 109]
LTR-III ΔTm: -0.7 °C

CC(=O)C1=N/C(=C\c2c[nH]c3ccccc23)C(=O)N1C [M 1975]
LTR-III ΔTm: -0.6 °C

C=CCc1cc(C=C2N=C(C)N(C)C2=O)ccc1O [X 11]
LTR-III ΔTm: -0.2 °C

CC1=NC(=Cc2ccc(O)cc2)C(=O)N1CCCNC(=O)OC(C)(C)C [X 10]
LTR-III ΔTm: -0.2 °C

CNC(=O)c1onc(C(=O)OC)c1-c1ccc(OC)cc1 [SA 561A]
LTR-III ΔTm: -0.3 °C

COc1ccc(-c2c(C(=O)OC(C)C)noc2C(=O)NC2CCCCC2)cc1 [SA 341B]
LTR-III ΔTm: -0.2 °C

CCN(CC)c1ccc(C=C2N=C(C)N(CCCCO[Si](c3ccccc3)(c3ccccc3)C(C)(C)C)C2=O)cc1 [N 162]
LTR-III ΔTm: 0.2 °C

COc1ccc2cc(C(c3ccc(C)cc3)C(c3ccc(C)cc3)c3ccc4cc(OC)ccc4c3)ccc2c1 (centres unmarked) [M 1362.2]
LTR-III ΔTm: -0.6 °C

CC1=NC(=Cc2ccc(O[Si](c3ccccc3)(c3ccccc3)C(C)(C)C)c(O)c2)C(=O)N1C [M 1620]
LTR-III ΔTm: 0.4 °C

COc1cc(/C=C2N=C(/C=C/c3c(F)c(F)nc(F)c3F)N(C)C\2=O)cc(OC)c1O [N 980]
LTR-III ΔTm: 1 °C

COc1cc(C=C2N=C(C)N(C)C2=O)ccc1O [M 2491]
LTR-III ΔTm: -0.2 °C

CCN(CC)c1ccc2cc(C=C3N=C(C)N(C)C3=O)ccc2c1 [N 601.23]
LTR-III ΔTm: -0.7 °C

CCC1=NC(=Cc2c[nH]c3ccccc23)C(=O)N1C [SV 14]
LTR-III ΔTm: 0 °C

CCC1=NC(=Cc2c[nH]c3ccccc23)C(=O)O1 [SV 11]
LTR-III ΔTm: 0 °C

CC1=NC(=Cc2ccc(Br)c([N+](=O)[O-])c2)C(=O)N1C [SV 52.8]
LTR-III ΔTm: 0.6 °C

CCOC(=O)CN1C(=O)C(=Cc2ccc(O)cc2)N=C1C [M 1831.1]
LTR-III ΔTm: -0.2 °C

O=C1NC(C=Cc2cc(Br)c(O)c(Br)c2)=NC1=Cc1ccc(O)cc1 [M 295]
LTR-III ΔTm: -0.5 °C

COc1ccc(O)c(C=C2N=C(C=Cc3cc(Br)c(O)c(Br)c3)N(C)C2=O)c1 [N 851B]
LTR-III ΔTm: 1.2 °C

CC(=O)NC(=Cc1ccccc1)C(=O)NO [SV 6]
LTR-III ΔTm: 0 °C

CN1C(=O)C(=Cc2ccc(O)cc2)N=C1C=Cc1ccc(O)c(Br)c1 [ccA 10]
LTR-III ΔTm: 0.7 °C

COc1ccc(-c2c(C(=O)OC(C)C)noc2C(=O)N2CCCC2)cc1 [SA 309]
LTR-III ΔTm: -0.5 °C

CN1C(=O)C(=Cc2ccccc2)N=C1Nc1ccccc1 [M 2385b1]
LTR-III ΔTm: -0.1 °C

COc1cc(O)ccc1/C=C1N=C(/C=C/c2ccccc2)N(C)C\1=O [MID 145]
LTR-III ΔTm: 0.9 °C

COc1cc(O)ccc1/C=C/C1=[N+](C)c2ccccc2C1(C)C.[O-][Cl+3]([O-])([O-])[O-] [M 2761a]
LTR-III ΔTm: 0.5 °C

CCN(CC)C(=S)Oc1ccc(C=C2N=C(c3ccccc3)N(C)C2=O)cc1 [M 2069]
LTR-III ΔTm: -0.4 °C

CN1C(=O)C(=Cc2ccc(O)cc2)N=C1C=Cc1ccccc1F [ccA 18]
LTR-III ΔTm: 0.1 °C

COc1cc(/C=C/c2ccc(O)cc2OC)oc(=O)c1 [SAI 32]
LTR-III ΔTm: 0.4 °C

CC1=NC(=Cc2cc3c4c(c2)CCCN4CCC3)C(=O)N1CCO [N 111]
LTR-III ΔTm: 1 °C

COc1cc(/C=C2\N=C(C)N(C)C2=O)c(OC)cc1O [N 1036]
LTR-III ΔTm: 0.5 °C

CC1=NC(=Cc2ccc(Br)cc2)C(=O)N1C [SV 51.10]
LTR-III ΔTm: -0.2 °C

COc1ccc(-c2c(C(=O)OC(C)C)noc2C(=O)NCc2ccccn2)cc1 [SA 350C]
LTR-III ΔTm: -0.6 °C

COc1ccc(C=C2N=C(C)N(OC)C2=O)cc1 [M 312]
LTR-III ΔTm: -0.2 °C

COc1c(O)ccc(C=C2N=C(C)N(C)C2=O)c1OC [N 1027.1]
LTR-III ΔTm: -0.1 °C

CC1=NC(=Cc2ccc(O)cc2Br)C(=O)N1C [ZS 174]
LTR-III ΔTm: -0.3 °C

CC(C)OC(=O)c1noc(C(=O)NC2CCCCC2)c1-c1ccccc1F [SA 331D]
LTR-III ΔTm: -0.7 °C

CN1C(=O)C(=Cc2ccc(OCc3ccccc3)cc2)N=C1C(C)(C)C [X 20]
LTR-III ΔTm: -0.2 °C

CCN(CC)C(=O)Sc1ccc(C=C2N=C(c3ccccc3)N(C)C2=O)cc1 [M 2075]
LTR-III ΔTm: 0.3 °C

CNC(=O)C(=Cc1ccc(C#N)cc1)N=[N+]=[N-] [N 830A]
LTR-III ΔTm: -0.1 °C

CCCC1=NC(=Cc2ccc(O)cc2)C(=O)N1C [GA 05]
LTR-III ΔTm: -0.5 °C

CC(C)OC(=O)c1noc(C(=O)N2CCOCC2)c1-c1cccc2ccccc12 [SA 343A]
LTR-III ΔTm: -0.4 °C

CC1=CC(C)(C)N(C)c2ccc(C=C3N=C(C)N(C)C3=O)cc21 [M 1152]
LTR-III ΔTm: 0.6 °C

CC1=NC(=Cc2ccc(N)c(O)c2)C(=O)N1C [X 5]
LTR-III ΔTm: 0.9 °C

CCOC(=O)CN1C(=O)C(=Cc2ccc(O)c(F)c2)N=C1C [M 2286.1]
LTR-III ΔTm: -0.3 °C

COc1ccc(NC(=O)c2onc(C(=O)OC(C)C)c2-c2ccc(OC)cc2)cc1 [AL 45]
LTR-III ΔTm: 0.2 °C

CN1C(=O)C(=Cc2ccc(O[Si](c3ccccc3)(c3ccccc3)C(C)(C)C)cc2)N=C1c1ccccc1 [Amm 75]
LTR-III ΔTm: -0.3 °C

CN1C(=O)C(=Cc2ccc(OCC(NC(=O)OC(C)(C)C)C(=O)O)cc2)N=C1c1ccccc1 (centres unmarked) [GR 161]
LTR-III ΔTm: -0.2 °C

CC(C)OC(=O)c1noc(=O)c(O)c1-c1ccc(C(C)C)cc1 [SA 300D]
LTR-III ΔTm: -1.2 °C

COc1cc(O)ccc1/C=C1N=C(/C=C(\C#N)c2cccs2)N(C)C\1=O [MID 153]
LTR-III ΔTm: 2 °C

COc1cc(O)ccc1C=C1N=C(C=C(C#N)c2ccccc2)N(C)C1=O [MID 151]
LTR-III ΔTm: 0.2 °C

CCN(CC)c1ccc(C=C2N=C(C)N(CCCCO)C2=O)cc1 [N 182]
LTR-III ΔTm: -0.1 °C

COc1cc(O)ccc1C=C1N=C(C=CN2CCCC2)N(C)C1=O [N 1118]
LTR-III ΔTm: 3 °C

CNC(=O)c1onc(C(=O)OC(C)C)c1-c1cccs1 [SA 330A]
LTR-III ΔTm: -0.5 °C

CC(C)OC(=O)c1noc(C(=O)N2CCCC2)c1-c1ccc(N(C)C)cc1 [SA 332.2]
LTR-III ΔTm: -0.4 °C

COc1ccc(C=C2N=C(Nc3ccccc3)N(C)C2=O)cc1 [M 1944b]
LTR-III ΔTm: -0.3 °C

CC1=NC(=Cc2ccc(F)cc2)C(=O)N1C [SV 50.10]
LTR-III ΔTm: -0.2 °C

CCOC(=O)CN1C(=O)C(=Cc2cccc([N+](=O)[O-])c2)N=C1C [SA 111]
LTR-III ΔTm: -0.1 °C

COC(=O)c1ccc(C=C2N=C(C=Cc3ccc(OC)cc3)N(C)C2=O)cc1 [AI 116]
LTR-III ΔTm: 0.8 °C

CN1C(=O)C(=Cc2ccc(O)cc2)N=C1c1ccccc1 [M 750]
LTR-III ΔTm: -0.2 °C

CC1=NC(=Cc2cccs2)C(=O)N1C [M 1583.3]
LTR-III ΔTm: 0.1 °C

CC(C)OC(=O)c1noc(=O)c(O)c1-c1cccc(C(F)(F)F)c1 [SA 305B]
LTR-III ΔTm: -0.5 °C

O=C1NC(/C=C/c2ccncc2)=NC/1=C\c1cc(F)c(O)c(F)c1 [N 863]
LTR-III ΔTm: 0 °C

CC(C)CCC1=NC(=Cc2ccc(O)cc2)C(=O)N1 [M 803]
LTR-III ΔTm: -0.1 °C

COc1ccc(-c2c(C(=O)OC(C)C)noc2C(=O)NCc2ccccc2)cc1 [SA 341C]
LTR-III ΔTm: -0.2 °C

CCC1=NC(=Cc2ccc(O)cc2)C(=O)N1OC [M 316]
LTR-III ΔTm: -0.3 °C

O=C1NC(=S)NC1=Cc1ccc(O)cc1 [M 2497]
LTR-III ΔTm: 0 °C

COc1cc(O)ccc1/C=C1N=C(/C=C/c2ccncc2)N(C)C\1=O [N 871B]
LTR-III ΔTm: 0.4 °C
